Experimental data reported in patent publication US8183243B2, “Melanocortin receptor agonists” (LG Life Sciences Ltd., priority 2008, dated 2012).
pEC50: −log10 of the molar value. Like-named read-outs stand apart in the source and are kept apart here.

Target: T1, MC4R (Homo sapiens, UniProt P32245)
T1 construct: expressed in transfected cells; host or cells: HEK (Human Embryonic Kidney) permanent expression cell line HEK MC4R-Luc, co-expressing CRE-luciferase
Assay: MCR agonistic activity (luciferase assay / cAMP accumulation assay) on MC4R
Assay type: cell-based
Details: HEK cell lines expressing MC4R, not said which
Protocol: Physiological activity of the compounds of the present invention was assessed by measuring agonistic activity as well as binding activity for melanocortin receptors (MCR) according to methods A and B explained as follows.
As one of the methods to measure MCR agonistic activity of the compound according to the present invention, the expression level of a marker gene (for example, luciferase) which increases proportionally according to the increase of cAMP content in the cell, was measured.
First, permanent expression HEK (Human Embryonic Kidney) cell lines (HEK MC1R-Luc, MC3R-Luc, MC4R-Luc or MC5R-Luc) expressing the MCR gene of each subtype together with luciferase gene (CRE-LUC) under the control of CRE (cAMP Response Element) were constructed. The above cell lines were incubated in an incubator with 6% CO2 atmosphere at 37° C. using selection medium, DMEM(Dulbecco's Modified Eagles Medium) containing 10% heat-inactivated fetal bovine serum (Gibco/BRL), 100 unit/ml, penicillin (Gibco/BRL), 100 unit/ml streptomycin (Gibco/BRL), and 200 μg/ml geneticin (G418) (Gibco/BRL). When the cell covered 70% of total surface of the culture dish with 100 mm diameter, the culture dish was rinsed one time with 10 ml Phosphate Buffered Saline(PBS) free of Ca^++ and Mg^++, and then 3 ml PBS solution containing 0.05% trypsin and 0.53 mM EDTA was added thereto. After the trypsin/EDTA solution was removed, the cell lines were incubated in an thermostatic incubator for 1 minute at 37° C., and resuspended in 10 ml selection medium and centrifuged for 5 minutes at 1500 rpm. The supernatant was discarded and the settled cells were resuspended in 5 ml selection medium free of Phenol Red. The resulting cell-suspension was plated onto each well of 96-well culture plates for Luminometer(Costar) with a concentration of 5×10^4 cell in 100 μl culture medium for each well and incubated in the incubator with 6% CO2 atmosphere at 37° C. for 18 hours. With MCR agonists (Example compounds) diluted stepwise using the above culture medium, the cells were treated under the condition of the final DMSO concentration not exceeding 1%, and incubated for 5 hours in the atmosphere of 6% CO2 at 37° C. Then, 50 μl Bright-Glo (Promega) was added to each well. After allowing the treated cells to be at room temperature for 15 minutes, luminescence was measured for each well by using luminometer (Victor). The level of luminescence induced by the stepwise-diluted agonist was converted to relative % value to those by the treatment of 10 nM NDP-MSH. The EC50 indicates the concentration of each agonist for inducing 50% of maximal luminescence by each agonist and this value was measured by a statistical software (Prizm).
B. cAMP Accumulation Assay
As another method to measure MCR agonistic activity of the compound according to the present invention, an increase of cAMP amount in the cell was measured.
First, permanent expression HEK (Human Embryonic Kidney) cell lines (HEK MC1R-Luc, MC3R-Luc, MC4R-Luc or MCSR-Luc) expressing the MCR gene of each subtype were plated onto each well of 24-well culture plates for Luminometer(Costar) with a concentration of 2×10^5 cell in 1 ml culture medium for each well, and then incubated in an incubator with 6% CO2 atmosphere at 37° C. for 24 hours. The medium was removed from each well followed by rinsing with 0.5 ml cold DMEM one time. With MCR agonists (Example compounds) diluted stepwise using 200 μl DMEM including 500 μM IBMX (isobutylmethylxanthine), the cells were treated under the condition of the final DMSO concentration not exceeding 1%, and incubated for 30 minutes in the atmosphere of 6% CO2 at 37° C. Then, the cAMP amount in each cell was measured using Amersham cAMP assay Kit (TRK432).
More specifically, 14.4 μl of 6M PCA (60%) was added to each well, and allowed to be in ice for 10 minutes, and 200 μl sample was taken from each well and transferred to microcentrifuge tube. […]

[1] = method A (CRE-luciferase) or B (cAMP accumulation), read-out: EC50 value, agonistic activity to MC4R (range per group of Examples)
[2] = specific activities of representative compounds, method A or B, read-out: EC50

T1 sequence (P32245 whole entry, species assumed): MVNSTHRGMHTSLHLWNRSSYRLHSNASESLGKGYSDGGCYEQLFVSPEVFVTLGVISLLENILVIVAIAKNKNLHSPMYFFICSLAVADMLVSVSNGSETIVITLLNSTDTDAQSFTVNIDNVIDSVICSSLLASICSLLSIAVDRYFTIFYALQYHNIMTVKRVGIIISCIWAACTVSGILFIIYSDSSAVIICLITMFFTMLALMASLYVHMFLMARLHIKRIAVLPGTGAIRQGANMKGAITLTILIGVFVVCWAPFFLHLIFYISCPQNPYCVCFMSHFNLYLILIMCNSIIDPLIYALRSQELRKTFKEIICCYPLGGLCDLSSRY

Row | SMILES | pEC50 [1] | pEC50 [2]
1 | CN1CCN(C(=O)[C@H]2C[C@H](N(C(=O)[C@@H]3CCCO3)[C@H]3CC[C@@H](C)CC3)CN2C(=O)[C@@H]2CN(C(C)(C)C)C[C@H]2c2ccc(Cl)cc2)CC1 (relative stereo) [Example 35, (2S)-N-{(3S,5R)-1-{[(3S,4R)-1-tert-butyl-4-(4-chlorophenyl)pyrrolidin-3-yl]carbonyl}-5-[(4-methylpiperazin-1-yl)carbonyl]pyrrolidin-3-yl}-N-(cis-4-methylcyclohexyl)tetrahydrofuran-2-carboxamide] | 8.00 to 10.00 | –
2 | CN1CCN(C(=O)[C@@H]2C[C@H](N(C(=O)C(C)(C)CO)C3CCC(C)(C)CC3)CN2C(=O)[C@@H]2CN(C(C)(C)C)C[C@H]2c2ccc(Cl)cc2)CC1 [Example 4, N-{(3S,5S)-1-{[(3S,4R)-1-tert-butyl-4-(4-chlorophenyl)pyrrolidin-3-yl]carbonyl}-5-[(4-methylpiperazin-1-yl)carbonyl]pyrrolidine-3-yl}-N-(4,4-dimethylcyclohexyl)-3-hydroxy-2,2-dimethylpropanamide] | 8.00 to 10.00 | 9.70
3 | CC(=O)N(C1CCC(C)(C)CC1)[C@H]1C[C@@H](C(=O)N2CCN(C)CC2)N(C(=O)[C@@H]2CN(C(C)(C)C)C[C@H]2c2ccc(F)cc2F)C1 [Example 5, N-{(3S,5S)-1-{[(3S,4R)-1-tert-butyl-4-(2,4-difluorophenyl)pyrrolidin-3-yl]carbonyl}-5-[(4-methylpiperazin-1-yl)carbonyl]pyrrolidin-3-yl}-N-(4,4-dimethylcyclohexyl)acetamide] | 7.00 to 8.00 | –
4 | CCN1CCN(C(=O)[C@@H]2C[C@H](N(C(C)=O)C3CCC(C)(C)CC3)CN2C(=O)[C@@H]2CN(C(C)(C)C)C[C@H]2c2ccc(Cl)cc2)CC1 [Example 8, N-{(3S,5S)-1-{[(3S,4R)-1-tert-butyl-4-(4-chlorophenyl)pyrrolidin-3-yl]carbonyl}-5-[(4-ethylpiperazin-1-yl)carbonyl]pyrrolidin-3-yl}-N-(4,4-dimethylcyclohexyl)acetamide] | 8.00 to 10.00 | –
5 | CN1CCN(C(=O)[C@@H]2C[C@H](N(C(=O)C(C)(C)C)C3CCC(C)(C)CC3)CN2C(=O)[C@@H]2CN(C(C)(C)C)C[C@H]2c2ccc(Cl)cc2)CC1 [Example 10, N-{(3S,5S)-1-{[(3S,4R)-1-tert-butyl-4-(4-chlorophenyl)pyrrolidin-3-yl]carbonyl}-5-[(4-methylpiperazin-1-yl)carbonyl]pyrrolidin-3-yl}-N-(4,4-dimethylcyclohexyl)-2,2-dimethylpropanamide] | 8.00 to 10.00 | –
6 | CN1CCN(C(=O)[C@@H]2C[C@H](N(C(=O)C(C)(C)C)C3CCC(C)(C)CC3)CN2C(=O)[C@@H]2CN(C(C)(C)C)C[C@H]2c2ccc(F)cc2F)CC1 [Example 11, N-{(3S,5S)-1-{[(3S,4R)-1-tert-butyl-4-(2,4-difluorophenyl)pyrrolidin-3-yl]carbonyl}-5-[(4-methylpiperazin-1-yl)carbonyl]pyrrolidin-3-yl}-N-(4,4-dimethylcyclohexyl)-2,2-dimethylpropanamide] | 8.00 to 10.00 | –
7 | CCN1CCN(C(=O)[C@@H]2C[C@H](N(C(=O)[C@@H]3CCCO3)C3CCC(C)(C)CC3)CN2C(=O)[C@@H]2CN(C(C)(C)C)C[C@H]2c2ccc(Cl)cc2)CC1 [Example 12, (2S)-N-{(3S,5S)-1-{[(3S,4R)-1-tert-butyl-4-(4-chlorophenyl)pyrrolidin-3-yl]carbonyl}-5-[(4-ethylpiperazin-1-yl)carbonyl]pyrrolidin-3-yl}-N-(4,4-dimethylcyclohexyl)tetrahydrofuran-2-carboxamide] | 8.00 to 10.00 | –
8 | CN1CCN(C(=O)[C@@H]2C[C@H](N(C(=O)[C@@H]3CCCO3)C3CCC(C)(C)CC3)CN2C(=O)[C@@H]2CN(C(C)(C)C)C[C@H]2c2ccc(F)cc2F)CC1 [Example 14, (2S)-N-{(3S,5S)-1-{[(3S,4R)-1-tert-butyl-4-(2,4-difluorophenyl)pyrrolidin-3-yl]carbonyl}-5-[(4-methylpiperazin-1-yl)carbonyl]pyrrolidin-3-yl}-N-(4,4-dimethylcyclohexyl)tetrahydrofuran-2-carboxamide] | 8.00 to 10.00 | –

Results, then the molecule that gave them:

Row | pEC50 [1] | pEC50 [2] | SMILES
9 | 8.00 to 10.00 | 8.00 | CC(=O)N(C1CCC(C)(C)CC1)[C@H]1C[C@@H](C(=O)N2CCN(C)CC2)N(C(=O)[C@@H]2CN(C(C)(C)C)C[C@H]2c2ccc(Cl)cc2)C1 [Example 1, N-{(3S,5S)-1-{[(3S,4R)-1-tert-butyl-4-(4-chlorophenyl)pyrrolidin-3-yl]carbonyl}-5-[(4-methylpiperazin-1-yl)carbonyl]pyrrolidin-3-yl}-N-(4,4-dimethylcyclohexyl)acetamide]
10 | 8.00 to 10.00 | 8.22 | CC(=O)N(C1CCC(C)(C)CC1)[C@H]1C[C@@H](C(=O)N2CCNCC2)N(C(=O)[C@@H]2CN(C(C)(C)C)C[C@H]2c2ccc(F)cc2F)C1 [Example 2, N-[(3S,5S)-1-{[(3S,4R)-1-tert-butyl-4-(2,4-difluorophenyl)pyrrolidin-3-yl]carbonyl}-5-(piperazin-1-ylcarbonyl)pyrrolidin-3-yl]-N-(4,4-dimethylcyclohexyl)acetamide]
11 | 8.00 to 10.00 | 8.52 | CN1CCN(C(=O)[C@@H]2C[C@H](N(C(=O)[C@@H]3CCCO3)C3CCC(C)(C)CC3)CN2C(=O)[C@@H]2CN(C(C)(C)C)C[C@H]2c2ccc(Cl)cc2)CC1 [Example 3, (2S)-N-{(3S,5S)-1-{[(3S,4R)-1-tert-butyl-4-(4-chlorophenyl)pyrrolidin-3-yl]carbonyl}-5-[(4-methylpiperazin-1-yl)carbonyl]pyrrolidin-3-yl}-N-(4,4-dimethylcyclohexyl)tetrahydrofuran-2-carboxamide]
12 | 7.00 to 8.00 | – | CCN1CCN(C(=O)[C@@H]2C[C@H](N(C(C)=O)C3CCC(C)(C)CC3)CN2C(=O)[C@@H]2CN(C(C)(C)C)C[C@H]2c2ccc(F)cc2F)CC1 [Example 6, N-{(3S,5S)-1-{[(3S,4R)-1-tert-butyl-4-(2,4-difluorophenyl)pyrrolidin-3-yl]carbonyl}-5-[(4-ethylpiperazin-1-yl)carbonyl]pyrrolidin-3-yl}-N-(4,4-dimethylcyclohexyl)acetamide]
13 | 7.00 to 8.00 | – | CC(=O)N(C1CCC(C)(C)CC1)[C@H]1C[C@@H](C(=O)N2CCN(C(C)C)CC2)N(C(=O)[C@@H]2CN(C(C)(C)C)C[C@H]2c2ccc(F)cc2F)C1 [Example 7, N-{(3S,5S)-1-{[(3S,4R)-1-tert-butyl-4-(2,4-difluorophenyl)pyrrolidin-3-yl]carbonyl}-5-[(4-isopropylpiperazin-1-yl)carbonyl]pyrrolidin-3-yl}-N-(4,4-dimethylcyclohexyl)acetamide]
14 | 8.00 to 10.00 | – | CC(=O)N(C1CCC(C)(C)CC1)[C@H]1C[C@@H](C(=O)N2CCN(C(C)C)CC2)N(C(=O)[C@@H]2CN(C(C)(C)C)C[C@H]2c2ccc(Cl)cc2)C1 [Example 9, N-{(3S,5S)-1-{[(3S,4R)-1-tert-butyl-4-(4-chlorophenyl)pyrrolidin-3-yl]carbonyl}-5-[(4-isopropylpiperazin-1-yl)carbonyl]pyrrolidin-3-yl}-N-(4,4-dimethylcyclohexyl)acetamide]
15 | 8.00 to 10.00 | – | CC(C)N1CCN(C(=O)[C@@H]2C[C@H](N(C(=O)[C@@H]3CCCO3)C3CCC(C)(C)CC3)CN2C(=O)[C@@H]2CN(C(C)(C)C)C[C@H]2c2ccc(Cl)cc2)CC1 [Example 13, (2S)-N-{(3S,5S)-1-{[(3S,4R)-1-tert-butyl-4-(4-chlorophenyl)pyrrolidin-3-yl]carbonyl}-5-[(4-isopropylpiperazin-1-yl)carbonyl]pyrrolidin-3-yl}-N-(4,4-dimethylcyclohexyl)tetrahydrofuran-2-carboxamide]
